Patent US10448639B2, “Fungicidal pyrazoles” (FMC CORPORATION, priority 2009, dated 2019)
Marks after values point to notes of the source that are not given here.

Tests used:
Septoria tritici = experiment: Test G: wheat leaf blotch, preventive spray on wheat seedlings, visual disease rating; settings: wheat leaf blotch; for Test G rating (% disease control) / Test G disease control rating: 100 = 100% disease control; for Test G disease control rating: sprayed the day before inoculation, 0 = no disease control relative to controls
Septoria nodorum = experiment: Test F: Septoria glume blotch, preventive spray on wheat seedlings, visual disease rating; settings: for Test F rating (% disease control) / Test F disease control rating: 100 = 100% disease control; for Test F disease control rating: 0 = no disease control relative to controls
[1] = test system: Puccinia recondita f. sp. tritici; experiment: Test I: wheat leaf rust, preventive spray on wheat seedlings, visual disease rating; settings: wheat leaf rust; for Test I rating (% disease control) / Test I disease control rating: 100 = 100% disease control; for Test I disease control rating: sprayed the day before inoculation, 0 = no disease control relative to controls
Alternaria solani = experiment: Test C: tomato early blight, preventive spray on tomato seedlings, visual disease rating; settings: tomato early blight; for Test C rating (% disease control) / Test C disease control rating: 100 = 100% disease control; for Test C disease control rating: 0 = no disease control relative to controls
Botrytis cinerea = experiment: Test B: tomato Botrytis, preventive spray on tomato seedlings, visual disease rating; settings: tomato Botrytis; for Test B rating (% disease control) / Test B disease control rating: 100 = 100% disease control; for Test B disease control rating: 0 = no disease control relative to controls
Text: General protocol for preparing test suspensions for Tests A-J: the test compounds were first dissolved in acetone in an amount equal to 3% of the final volume and then suspended at the desired concentration (in ppm) in acetone and purified water (50/50 mix by volume) containing 250 ppm of the surfactant Trem® 014 (polyhydric alcohol esters). The resulting test suspensions were then used in Tests A-J. Spraying a 200 ppm test suspension to the point of run-off on the test plants was the equivalent of a rate of 500 g/ha. Unless otherwise indicated, the rating values indicate a 200 ppm test suspension was used. (An asterisk “*” next to the rating value indicates a 40 ppm test suspension was used.)
The test suspension was sprayed to the point of run-off on tomato seedlings. The following day the seedlings were inoculated with a spore suspension of Botrytis cinerea (the causal agent of tomato Botrytis) and incubated in saturated atmosphere at 20° C. for 48 h, and then moved to a growth chamber at 24° C. for 3 additional days, after which time visual disease ratings were made.

[2] = test system: Erysiphe graminis f sp. tritici; experiment: Test J: wheat powdery mildew, preventive spray on wheat seedlings, visual disease rating; settings: wheat powdery mildew; for Test J rating (% disease control) / Test J disease control rating: 100 = 100% disease control; for Test J disease control rating: sprayed the day before inoculation, 0 = no disease control relative to controls
[3] = test system: Puccinia recondita f. sp. tritici; experiment: Test H: wheat leaf rust, curative spray on inoculated wheat seedlings, visual disease rating; settings: wheat leaf rust; for Test H rating (% disease control) / Test H disease control rating: 100 = 100% disease control; for Test H disease control rating: sprayed after inoculation, 0 = no disease control relative to controls
[4] = preventive spray, 0 = no control
[5] = Septoria glume blotch on wheat, preventive spray, 0 = no control
[6] = 0 = no control relative to controls
[7] = Septoria glume blotch, 0 = no control relative to controls
[8] = preventive, 0 = no control relative to controls
[9] = curative, 0 = no control relative to controls
[10] = preventive spray, rating marked with asterisk (different test condition, key not given)

| SMILES | Test G rating (% disease control) (Septoria tritici; [4]) [%] | Test F rating (% disease control) (Septoria nodorum; [5]) [%] | Test I rating (% disease control) [1, 4] [%] | Test C rating (% disease control) (Alternaria solani; [4]) [%] | Test B rating (% disease control) (Botrytis cinerea; [4]) [%] | Test J rating (% disease control) [2, 4] [%] | Test H rating (% disease control) ([3]; curative spray, 0 = no control) [%] | Test G rating (% disease control) (Septoria tritici; [6]) [%] | Test F rating (% disease control) (Septoria nodorum; [7]) [%] | Test I rating (% disease control) [1, 8] [%] | Test C rating (% disease control) (Alternaria solani; [6]) [%] | Test B rating (% disease control) (Botrytis cinerea; [6]) [%] | Test J rating (% disease control) [2, 6] [%] | Test H rating (% disease control) [3, 9] [%] | also measured |
| --- | --- | --- | --- | --- | --- | --- | --- | --- | --- | --- | --- | --- | --- | --- | --- |
| Cc1nn(C)c(Nc2ncc(Cl)cc2Cl)c1-c1c(F)cc(F)cc1F [compound 101] | 100 | 100 | 99 | 99 | 100 | 100 | 99 |  |  |  |  |  |  |  |  |
| Cc1nn(C)c(Nc2ccc(F)cc2F)c1-c1c(F)cccc1C(F)(F)F [compound 255] |  |  |  |  |  |  |  | 0 | 0 | 0 | 0 | 100 | 39 | 0 |  |
| Cc1cc(Oc2c(-c3c(F)cc(F)cc3F)c(C)nn2C)ccc1[N+](=O)[O-] [compound 135] | 97 | 0 | 74 | 0 | 0 | 95 | 16 |  |  |  |  |  |  |  |  |
| Cc1nn(C)c(Nc2cc(F)ccc2F)c1-c1ccc(F)cc1Cl [compound 173] |  |  |  |  |  |  |  | 98 | 0 | 83 | 86 | 100 | 100 | 0 |  |
| COc1ccc(-c2c(C)nn(C)c2Oc2c(F)cc(C#N)cc2F)c(F)c1 [compound 46] | 100 | 99 | 100 | 100 | 99 | 99 | 37 |  |  |  |  |  |  |  |  |
| Cc1nn(C)c(Nc2ccc(Cl)cc2Cl)c1-c1ccc(F)cc1F [compound 243] |  |  |  |  |  |  |  | 100 | 0 | 97 | 64 | 100 | 100 | 0 |  |
| Cc1nn(C)c(Nc2ccc(F)cc2F)c1-c1ccccc1C(F)(F)F [compound 238] |  |  |  |  |  |  |  | 0 | 0 | 9 | 0 | 99 | 43 | 53 |  |
| Cc1nn(C)c(Nc2ncc(Cl)cc2Cl)c1-c1c(F)cccc1F [compound 321] |  |  |  |  |  |  |  |  |  |  |  |  |  |  | Test G disease control rating (Septoria tritici): 100%; Test F disease control rating (Septoria nodorum; Septoria glume blotch on wheat): 78%; Test I disease control rating [1]: 99%; Test C disease control rating (Alternaria solani): 99%; Test B disease control rating (Botrytis cinerea): 100%; Test J disease control rating [2]: 100%; Test H disease control rating [3]: 9% |
| COc1cc(F)c(-c2c(C)nn(C)c2Nc2ccc(Cl)nc2)c(F)c1 [compound 34] |  |  |  |  |  |  |  |  |  |  |  |  |  |  | Test G rating (% disease control), value marked * (Septoria tritici; [10]): 96* %; Test F rating (% disease control), value marked * (Septoria nodorum; Septoria glume blotch, preventive spray, rating marked with asterisk (different test condition, key not given)): 0* %; Test I rating (% disease control), value marked * [1, 10]: 76* %; Test C rating (% disease control), value marked * (Alternaria solani; [10]): 97* %; Test B rating (% disease control), value marked * (Botrytis cinerea; [10]): 100* %; Test J rating (% disease control), value marked * [2, 10]: 0* %; Test H rating (% disease control), value marked * ([3]; curative spray, rating marked with asterisk (different test condition, key not given)): 0* % |
| Cc1nn(C)c(Nc2ccc(F)cc2Cl)c1-c1ccc(Cl)cc1Cl [compound 354] |  |  |  |  |  |  |  |  |  |  |  |  |  |  | Test G disease control rating (Septoria tritici): 100%; Test F disease control rating (Septoria nodorum; Septoria glume blotch on wheat): 0%; Test I disease control rating [1]: 98%; Test C disease control rating (Alternaria solani): 0%; Test B disease control rating (Botrytis cinerea): 99%; Test J disease control rating [2]: 100%; Test H disease control rating [3]: 82% |
